Values quoted from earlier work, collected in US11484035B2, “Synergistic composition of a nematicide” (TELLURIS BIOTECH INDIA PRIVATE LIMITED, priority 2017, dated 2022).

Test system: nematodes
Details: individual peptides

## DLLRPVVIAPQFSRQ (Caenorhabditis elegans) [Peptide 2, 15 amino acid peptide, 99-113 amino acid stretch of CED-4 protein]
  effective concentration for nematicidal activity: about 1 mg/ml

## FPKFMQLHQKFY (Caenorhabditis elegans) [Peptide 12, 12 amino acid peptide, 529-540 amino acid stretch of CED-4 protein]
  effective concentration for nematicidal activity: about 1 mg/ml

## RQMLDRKLLLGNVPKQMTC (Caenorhabditis elegans) [Peptide 3, 19 amino acid peptide, 112-130 amino acid stretch of CED-4 protein]
  effective concentration for nematicidal activity: about 1 mg/ml
